{
  "source": "paper PMC7044277",
  "about": "(Nature Communications, 2020)",
  "key": {"[1]": {"target": "T1, DRD4 (D4.4 variant) wild-type (Homo sapiens, UniProt P21917)", "T1 sequence (P21917 1-419)": "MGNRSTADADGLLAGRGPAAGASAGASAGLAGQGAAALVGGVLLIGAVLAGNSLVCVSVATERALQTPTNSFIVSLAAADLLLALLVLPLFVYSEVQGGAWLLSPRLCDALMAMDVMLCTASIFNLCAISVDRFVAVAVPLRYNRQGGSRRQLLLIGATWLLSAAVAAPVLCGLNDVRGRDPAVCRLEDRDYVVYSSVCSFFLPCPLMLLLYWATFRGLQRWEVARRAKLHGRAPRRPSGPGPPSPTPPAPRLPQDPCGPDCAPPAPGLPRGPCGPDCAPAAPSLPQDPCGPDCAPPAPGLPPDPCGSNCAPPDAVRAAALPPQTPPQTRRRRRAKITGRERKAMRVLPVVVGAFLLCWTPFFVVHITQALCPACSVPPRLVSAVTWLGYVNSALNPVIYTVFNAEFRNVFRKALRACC", "experiment": "Radioligand competition binding, [3H]-N-methylspiperone", "settings": "DRD4; [3H]-methylspiperone (0.8-1.0 nM); read-out: Ki"}, "DRD3": {"target": "DRD3 (Homo sapiens, UniProt P35462)", "sequence (P35462 whole entry)": "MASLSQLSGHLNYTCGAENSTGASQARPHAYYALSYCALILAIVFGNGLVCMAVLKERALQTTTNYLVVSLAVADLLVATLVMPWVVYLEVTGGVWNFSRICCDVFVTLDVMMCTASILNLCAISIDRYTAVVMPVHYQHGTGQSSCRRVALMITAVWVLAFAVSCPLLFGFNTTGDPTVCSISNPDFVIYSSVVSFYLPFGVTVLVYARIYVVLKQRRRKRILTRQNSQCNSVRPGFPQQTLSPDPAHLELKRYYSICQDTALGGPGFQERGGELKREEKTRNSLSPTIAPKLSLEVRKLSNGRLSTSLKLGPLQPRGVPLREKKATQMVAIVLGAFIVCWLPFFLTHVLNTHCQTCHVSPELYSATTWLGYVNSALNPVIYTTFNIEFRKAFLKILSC", "experiment": "Gαi/o-mediated cAMP inhibition (GloSensor)", "assay_type": "cell-based", "settings": "DRD3, cAMP inhibition"}, "5HT1F": {"target": "T2, 5HT1F (Homo sapiens, UniProt P30939)", "T2 construct": "expressed in transfected cells; host or cells: HTLA cells expressing TEV-fused β-arrestin2", "T2 sequence (P30939 1-366)": "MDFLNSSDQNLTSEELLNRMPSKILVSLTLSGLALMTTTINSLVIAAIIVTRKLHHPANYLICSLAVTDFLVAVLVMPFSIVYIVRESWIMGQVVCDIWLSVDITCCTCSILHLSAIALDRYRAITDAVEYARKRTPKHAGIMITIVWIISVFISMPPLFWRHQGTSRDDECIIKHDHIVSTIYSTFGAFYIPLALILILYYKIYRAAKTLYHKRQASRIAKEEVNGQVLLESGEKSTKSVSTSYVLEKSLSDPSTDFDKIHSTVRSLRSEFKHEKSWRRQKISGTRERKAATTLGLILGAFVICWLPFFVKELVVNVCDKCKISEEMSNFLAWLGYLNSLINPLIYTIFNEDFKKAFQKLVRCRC", "experiment": "β-arrestin2 recruitment (Tango)", "assay_type": "cell-based", "settings": "for β-arrestin2 recruitment response, agonist mode (single replicate values): Fig_S10j; for Fig_S10j dose-response, drug alone (agonist mode), β-arrestin2 recruitment: single replicate values"}, "[2]": {"system": "serotonin receptor of Fig_S10g (subtype not named)", "experiment": "β-arrestin2 recruitment (Tango), agonist activity, panel Fig_S10g (serotonin as reference; receptor not given)", "assay_type": "cell-based, human"}},
  "note": "Where “and” joins values, the source holds several entries; their conditions need not be identical. Identical values can stand only once.",
  "data": [
    {"compound": "CCOc1cccc2cc(C(C)NCC3(O)CCCCC3)oc12", "note": "(stereo not drawn) [O4LE6]", "values": [
      {"measurement": "Ki", "setting": "[1]", "result": "> 10000", "unit": "nM"},
      {"measurement": "EC50", "setting": "DRD3; agonist, read-out: EC50 ± SEM", "result": "5.09 ± 0.16", "unit": "nM"},
      {"measurement": "Emax", "setting": "DRD3; read-out: Emax relative to quinpirole response", "result": 62.4, "unit": "%"}
    ]},
    {"compound": "NCCc1c[nH]c2ccc(O)cc12", "note": "[serotonin]", "values": [
      {"measurement": "β-arrestin2 recruitment response, agonist mode (single replicate values)", "setting": "5HT1F; Log[Drug] -8", "result": "-3.452 and 0.8129 and -0.7741 and 0.7081 and -0.3166"},
      {"measurement": "β-arrestin2 recruitment response, agonist mode (single replicate values)", "setting": "5HT1F; Log[Drug] -8.52", "result": "1.467 and -0.5936 and -0.6771 and -0.2347 and -1.695 and -2.24 and -2.059 and -1.682 and -0.1562 and 2.169 and 0.8707 and -1.81"},
      {"measurement": "β-arrestin2 recruitment response, agonist mode (single replicate values)", "setting": "5HT1F; Log[Drug] -9", "result": "-0.04426 and -0.9855 and -1.843 and -0.9137 and -1.161 and -1.413 and 1.14 and -2.447 and -1.948 and 1.946 and -0.5 and -0.1377"},
      {"measurement": "β-arrestin2 recruitment response, agonist mode (single replicate values)", "setting": "5HT1F; Log[Drug] -9.52", "result": "-2.101 and 2.6714 and -0.3744 and -0.1804 and 3.084 and -0.3427 and -1.809 and -0.4001 and 2.85 and -0.1339 and -0.298"},
      {"measurement": "β-arrestin2 recruitment response, agonist mode (single replicate values)", "setting": "5HT1F; Log[Drug] -10", "result": "-0.8375 and -0.7488 and -1.773 and 1.74 and -2.24 and -1.559 and -0.2741 and -1.133 and -0.7969 and 0.416 and -0.2133 and -1.1997"},
      {"measurement": "β-arrestin2 recruitment response, agonist mode (single replicate values)", "setting": "5HT1F; Log[Drug] -10.52", "result": "-2.914 and -1.511 and -1.366 and -1.154 and -2.628 and -0.5924 and -0.6184 and 5.324 and 0.8942 and 0.1831 and -0.2458 and -1.109"},
      {"measurement": "β-arrestin2 recruitment response, agonist mode (single replicate values)", "setting": "5HT1F; Log[Drug] -11", "result": "4.606 and -2.13 and -1.057 and 0.00776 and -2.261 and -1.2903 and -0.3379 and -1.603 and 0.8607 and 0.8858 and 0.4773 and -0.3843"},
      {"measurement": "β-arrestin2 recruitment response, agonist mode (single replicate values)", "setting": "5HT1F; Log[Drug] -11.52", "result": "-1.978 and -2.064 and -1.769 and 3.255 and 2.53 and 1.832 and 0.0271 and 2.781 and -0.9914 and 1.71 and -0.0711 and -0.3911"},
      {"measurement": "β-arrestin2 recruitment response, agonist mode (single replicate values)", "setting": "5HT1F; Log[Drug] -12", "result": "-1.651 and 2.46 and -1.762 and -0.6984 and -0.5958 and -0.3302 and -0.006376 and -1.878 and -2.439 and 3.47 and -0.3101 and 0.7769"},
      {"measurement": "Fig_S10j dose-response, drug alone (agonist mode), β-arrestin2 recruitment", "setting": "5HT1F; Log[Drug] -5", "result": "60.4606 and 65.0002 and 90.3142 and 57.9444 and 78.7631 and 57.8244 and 78.5234 and 70.8275 and 63.3071"},
      {"measurement": "Fig_S10j dose-response, drug alone (agonist mode), β-arrestin2 recruitment", "setting": "5HT1F; Log[Drug] -5.52", "result": "68.8966 and 66.6667 and 38.5966 and 34.7166 and 67.3748 and 41.3918 and 50.0717 and 43.7042 and 56.4145 and 60.2307 and 56.8071"},
      {"measurement": "Fig_S10j dose-response, drug alone (agonist mode), β-arrestin2 recruitment", "setting": "5HT1F; Log[Drug] -6", "result": "65.3117 and 41.5532 and 32.9512 and 18.8414 and 35.6041 and 33.2006 and 38.6085 and 22.7128 and 20.6455 and 38.0393 and 43.4213 and 39.1952"},
      {"measurement": "Fig_S10j dose-response, drug alone (agonist mode), β-arrestin2 recruitment", "setting": "5HT1F; Log[Drug] -6.52", "result": "37.7864 and 17.7453 and 10.6352 and 8.195 and 10.8807 and 16.9203 and 24.2636 and 7.26 and 7.434 and 25.9629 and 24.0976 and 19.2564"},
      {"measurement": "Fig_S10j dose-response, drug alone (agonist mode), β-arrestin2 recruitment", "setting": "5HT1F; Log[Drug] -7", "result": "0.08171 and 0.8827 and 2.8945 and 3.486 and 0.8409 and 1.495 and 3.165 and 2.979 and 1.237 and 11.4622 and 7.762 and 4.191"},
      {"measurement": "Fig_S10j dose-response, drug alone (agonist mode), β-arrestin2 recruitment", "setting": "5HT1F; Log[Drug] -7.52", "result": "-1.661 and -1.926 and 1.238 and 3.081 and -2.387 and 1.699 and 4.498 and -1.4313 and 5.445 and 5.244 and 1.302 and 0.4992"},
      {"measurement": "response, single replicate of concentration-response curve", "setting": "[2]; Log[Drug] -8, drug alone", "result": "25.2624 and 2.418 and -0.9864 and -1.203"},
      {"measurement": "response, single replicate of concentration-response curve", "setting": "[2]; Log[Drug] -8.52, drug alone", "result": "25.8336 and 6.58 and 3.873 and 4.678 and -1.548 and 7.766 and 9.13 and -0.6727 and -11.3553 and -6.415 and -5.731 and -10.9031"},
      {"measurement": "response, single replicate of concentration-response curve", "setting": "[2]; Log[Drug] -9, drug alone", "result": "10.8032 and 1.6368 and -4.3076 and 0.1698 and 3.269 and 3.74 and 1.924 and 0.05671 and -7.517 and 1.634 and 12.5106 and -9.089"},
      {"measurement": "response, single replicate of concentration-response curve", "setting": "[2]; Log[Drug] -9.52, drug alone", "result": "7.867 and 1.536 and -2.919 and -4.095 and 0.1351 and -9.62 and 29.2497 and 12.5325 and 5.929 and 12.1786 and -19.689 and -3.037"},
      {"measurement": "response, single replicate of concentration-response curve", "setting": "[2]; Log[Drug] -10, drug alone", "result": "13.3168 and 3.318 and 3.578 and -7.852 and 7.397 and -7.7805 and -4.613 and 22.4428 and -0.2757 and -9.974 and -10.1372 and -5.303"},
      {"measurement": "response, single replicate of concentration-response curve", "setting": "[2]; Log[Drug] -10.52, drug alone", "result": "-2.613 and 10.3391 and -3.556 and 0.8157 and -5.415 and -4.823 and 18.6922 and -6.036 and 3.52 and 5.655 and -15.149 and -15.6819"},
      {"measurement": "response, single replicate of concentration-response curve", "setting": "[2]; Log[Drug] -11, drug alone", "result": "7.973 and 11.7127 and -1.724 and -0.1913 and 3.65 and 5.648 and -0.1936 and 0.6531 and 0.8995 and 27.444 and 32.0015 and 10.1517"},
      {"measurement": "response, single replicate of concentration-response curve", "setting": "[2]; Log[Drug] -11.52, drug alone", "result": "21.6155 and 10.2673 and -4.337 and 2.007 and 0.7121 and -12.0608 and 20.4384 and 18.8721 and -0.9836 and 23.865 and -4.732 and 10.0527"},
      {"measurement": "response, single replicate of concentration-response curve", "setting": "[2]; Log[Drug] -12, drug alone", "result": "27.8009 and 4.255 and 0.08804 and -4.341 and 18.1882 and 2.442 and 25.1178 and 36.1309 and 7.918 and 30.4435 and -6.616 and 17.9883"}
    ]}
  ]
}
